The values below are quoted from earlier work in patent publication US10501455B2, “Inhibitors of leukotriene A4 hydrolase” (Celtaxsys, Inc., priority 2013, dated 2019).

Series [1] concerns the target T1, LTA4-h (Rattus norvegicus, UniProt P30349).
T1 construct: host or cells: rat peritoneum in vivo
T1 sequence (P30349 1-611): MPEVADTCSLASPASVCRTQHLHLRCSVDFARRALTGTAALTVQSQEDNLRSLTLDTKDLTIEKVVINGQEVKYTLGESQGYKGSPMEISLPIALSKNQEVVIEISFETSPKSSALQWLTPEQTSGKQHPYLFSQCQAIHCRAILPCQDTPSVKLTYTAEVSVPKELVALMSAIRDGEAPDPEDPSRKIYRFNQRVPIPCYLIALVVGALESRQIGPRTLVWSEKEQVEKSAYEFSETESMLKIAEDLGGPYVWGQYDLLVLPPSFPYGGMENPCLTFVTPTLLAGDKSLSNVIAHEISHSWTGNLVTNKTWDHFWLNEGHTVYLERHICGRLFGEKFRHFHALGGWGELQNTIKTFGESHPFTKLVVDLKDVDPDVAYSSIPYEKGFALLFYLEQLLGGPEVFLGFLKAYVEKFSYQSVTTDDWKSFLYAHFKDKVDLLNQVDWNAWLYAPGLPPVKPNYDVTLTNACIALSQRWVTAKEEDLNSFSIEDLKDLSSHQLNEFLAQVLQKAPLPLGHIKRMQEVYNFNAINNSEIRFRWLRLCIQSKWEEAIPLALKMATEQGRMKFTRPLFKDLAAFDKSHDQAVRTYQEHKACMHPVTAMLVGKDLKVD
As to conditions: oral administration, rat peritoneum in vivo; cited from earlier work.

For series [2], the target named is T2, LTA4-h (Mus musculus, UniProt P24527).
T2 construct: host or cells: mouse blood ex vivo
T2 sequence (P24527 1-611): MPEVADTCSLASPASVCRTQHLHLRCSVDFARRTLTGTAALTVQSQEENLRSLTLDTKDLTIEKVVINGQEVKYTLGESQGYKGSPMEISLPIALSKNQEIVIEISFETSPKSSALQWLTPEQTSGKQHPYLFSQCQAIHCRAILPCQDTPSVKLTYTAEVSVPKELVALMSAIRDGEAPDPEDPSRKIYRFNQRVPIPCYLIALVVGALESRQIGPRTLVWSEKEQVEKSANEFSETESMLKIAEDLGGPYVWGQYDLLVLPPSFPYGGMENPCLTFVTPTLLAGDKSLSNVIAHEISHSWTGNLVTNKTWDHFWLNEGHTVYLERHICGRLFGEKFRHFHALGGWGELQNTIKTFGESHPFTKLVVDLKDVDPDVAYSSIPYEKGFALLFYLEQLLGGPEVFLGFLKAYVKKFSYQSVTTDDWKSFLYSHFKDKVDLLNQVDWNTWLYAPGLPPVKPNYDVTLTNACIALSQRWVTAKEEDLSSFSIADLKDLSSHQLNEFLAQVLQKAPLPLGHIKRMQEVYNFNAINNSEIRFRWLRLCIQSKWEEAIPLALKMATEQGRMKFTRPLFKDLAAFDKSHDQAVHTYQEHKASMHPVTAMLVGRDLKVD
The conditions noted are these: oral administration, mouse blood ex vivo; cited from earlier work.

A further series has as its system colitis. As to conditions: eight weeks of treatment, cotton top tamarins; cited from earlier work.

Regarding `CN(CCCOc1ccc(Cc2ccccc2)cc1)CCC(=O)O.Cl` [SC57461], the “inhibition of ionophore-induced LTB4 production” value at LTA4-h [1] and on LTA4-h [2] was “caused inhibition” in each case. Besides, the colitis symptoms entry in the series on colitis is “significantly improved colitis symptoms”.
